# From US20250304705A1, “BIOTIN ORTHOGONAL STREPTAVIDIN SYSTEM” (UNIVERSITY OF UTAH RESEARCH FOUNDATION, priority 2022, published 2025)
# Tests used:
# [1] = target: T1, L-SA (recombinant SA, Novus Biologicals) (Streptomyces avidinii, UniProt P22629); experiment: isothermal titration calorimetry (ITC), biotin enantiomer titrated into recombinant L-SA; type: binding; conditions: fit using Origin software
# T1 construct: purchased Novus Biologicals
# Experimental: First, a control isothermal titration calorimetry (ITC) experiment was performed.
# [2] = test system: D-SA; experiment: binding of D-biotin to D-SA, by mirror-image symmetry from L-biotin/L-SA ITC; conditions: orthogonality, inferred by mirror-image symmetry
# Description: As detailed herein, mirror-image SA and biotin (D-SA/L-biotin) offer an elegant solution to circumvent the limitations encountered with L-SA/D-biotin systems. For example, D-proteins are inert to L-proteases and therefore cannot be digested for MHC presentation to the immune system. […] Therefore, it is proposed that D-SA/L-biotin can be used as a biotin orthogonal streptaviding system (BOSS). Without wishing to be bound by theory, it is hypothesized that the orthogonality of BOSS, along with D-SA's low immunogenicity, will overcome the limitations of natural SA/biotin.
# First, a control isothermal titration calorimetry (ITC) experiment was performed. […] This titration data was fit using Origin software to calculate binding stoichiometry (N=0.97±0.003 sites) and enthalpy (ΔH=−27.72±0.18 kcal/mol), as shown in FIG. 2A.
# T1 sequence (P22629 37-163): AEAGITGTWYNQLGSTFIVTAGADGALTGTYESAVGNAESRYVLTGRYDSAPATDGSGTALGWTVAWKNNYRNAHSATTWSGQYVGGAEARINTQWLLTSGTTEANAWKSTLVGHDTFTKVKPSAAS
compound,measurement,setting,value
O=C(O)CCCC[C@@H]1SC[C@@H]2NC(=O)N[C@@H]21 [D-biotin],enthalpy (ΔH),[1],-27.72 ± 0.18 kcal/mol
same,binding to D-SA,[2],minimal binding
